Measurements reported in patent US8404640B2 (priority 2006, dated 2013).

Legend:
[1] = tested on: CXCL12 protein expression; assay: Immunofluorescence microscopy of CXCL12 protein in 5-aza-treated HCT116 cells; format: cell-based, human; conditions: 2.5 μM 5-aza, 3 days
Description: Immunofluorescence microscopy. HCT116 epithelial cells were plated to glass chamber slides and grown for 3-days in untreated or 5-aza containing media. Cells were stained with mouse mAb specific for CXCL12 (clone #79018.111, R&D Systems) or a nonspecific mouse IgG control antibody (BD Pharmingen, San Jose, Calif.). CXCL12 protein and IgG background staining was visualized using Alexa Fluor 594 conjugated goat anti-mouse antibody (Molecular Probes, Eugene, Oreg.). Nuclei were visualized with a DAPI counterstain.

[2] = tested on: CXCL12 mRNA expression; assay: RT-PCR analysis of CXCL12 and CXCR4 mRNA in 5-aza-treated colonic carcinoma cells; format: cell-based, human; conditions: for CXCL12 mRNA expression: indicated concentrations for five days
Text: (§1) Human colorectal carcinoma cell lines. HT29 (HTB-38), HCT116 (CCL-247), Caco2 (HTB-37), T84 (CCL-248) colonic carcinoma cells were purchased from the American Type Culture Collection (ATCC, Rockville, Md.) and maintained as previously described (Smith, J. M., et al. (2005) Am. J. Physiol Gastrointest. Liver Physiol 288, 316-26; Dwinell, M. B., et al. (2001) Gastroenterology 120, 49-59). Dnmt1, Dnmt3b or Dnmt1/Dnmt3b double knockout HCT116 cells were the kind gift of Dr. Bert Vogelstein (John Hopkins University School of Medicine) and were maintained similarly to wild-type HCT116 cells. In some experiments, carcinoma cells were treated with 5-aza (EMD Biosciences, La Jolla, Calif.) every 24 hr for the indicated number of days.
RT-PCR analysis. Total RNA was isolated from cultured cells and colonic crypt epithelium using TRIzol reagent (Invitrogen, Carlsbad, Calif.), DNase treated (Ambion, Austin, Tex.) and 2 μg of total RNA was converted to cDNA via reverse transcription using random priming in a 40 μl volume. CXCL12, CXCR4, and β-actin mRNA transcripts were amplified using previously described PCR primers and conditions (Heidemann, J., et al. (2004) Am. J. Physiol Gastrointest. Liver Physiol 286, G1059-G1068; Smith, J. M., et al. (2005) Am. J. Physiol Gastrointest. Liver Physiol 288, 316-26). Other PCR analyses were conducted using listed primer pairs and conditions (Table S1). […] in cDNA synthesis reactions as a negative control.

[3] = tested on: CXCL12 promoter; assay: Methylation-specific PCR of the CXCL12 promoter in 5-aza-treated cells; format: cell-based, human
Description: Methylation Specific PCR and Bisulphite Sequencing PCR. Genomic DNA from cell lines and colonic crypt preparations was isolated using the Genomic DNA wizard kit (Promega, Madison, Wis.) or TRIzol according to the manufacturer's instructions. […] DNA (2 μg) was denatured in 0.3M NaOH at 42° C. for 20 min in a 111 μl reaction volume. To this 1.2 ml of sodium bisulphite solution (4.5M NaHSO3, 0.02M hydroquinone, and pH 5.0) was added and incubated 16 hrs at 55° C. This reaction was desalted using DNA Purification Wizard (Promega) and the DNA was desulfonated in 0.3M NaOH at 37° C. for 20 min. The converted DNA was precipitated at −20° C., overnight in 75% ethanol containing 0.7M ammonium acetate and 0.05 mg/ml of glycogen, reconstituted in 50 μl of water, and 4.0 μl used in each 50 μl PCR reaction using 0.5 μM of specific MSP primers (Table S1).

[4] = target: T1, Dnmt1 (Homo sapiens, UniProt P26358); assay: Immunoblot of extractable Dnmt1 in 5-aza-treated HCT116 cells; format: cell-based; conditions: increasing concentrations of 5-aza
T1 construct: endogenous in cells; host or cells: HCT116 (ATCC CCL-247)
T1 sequence (P26358 whole entry): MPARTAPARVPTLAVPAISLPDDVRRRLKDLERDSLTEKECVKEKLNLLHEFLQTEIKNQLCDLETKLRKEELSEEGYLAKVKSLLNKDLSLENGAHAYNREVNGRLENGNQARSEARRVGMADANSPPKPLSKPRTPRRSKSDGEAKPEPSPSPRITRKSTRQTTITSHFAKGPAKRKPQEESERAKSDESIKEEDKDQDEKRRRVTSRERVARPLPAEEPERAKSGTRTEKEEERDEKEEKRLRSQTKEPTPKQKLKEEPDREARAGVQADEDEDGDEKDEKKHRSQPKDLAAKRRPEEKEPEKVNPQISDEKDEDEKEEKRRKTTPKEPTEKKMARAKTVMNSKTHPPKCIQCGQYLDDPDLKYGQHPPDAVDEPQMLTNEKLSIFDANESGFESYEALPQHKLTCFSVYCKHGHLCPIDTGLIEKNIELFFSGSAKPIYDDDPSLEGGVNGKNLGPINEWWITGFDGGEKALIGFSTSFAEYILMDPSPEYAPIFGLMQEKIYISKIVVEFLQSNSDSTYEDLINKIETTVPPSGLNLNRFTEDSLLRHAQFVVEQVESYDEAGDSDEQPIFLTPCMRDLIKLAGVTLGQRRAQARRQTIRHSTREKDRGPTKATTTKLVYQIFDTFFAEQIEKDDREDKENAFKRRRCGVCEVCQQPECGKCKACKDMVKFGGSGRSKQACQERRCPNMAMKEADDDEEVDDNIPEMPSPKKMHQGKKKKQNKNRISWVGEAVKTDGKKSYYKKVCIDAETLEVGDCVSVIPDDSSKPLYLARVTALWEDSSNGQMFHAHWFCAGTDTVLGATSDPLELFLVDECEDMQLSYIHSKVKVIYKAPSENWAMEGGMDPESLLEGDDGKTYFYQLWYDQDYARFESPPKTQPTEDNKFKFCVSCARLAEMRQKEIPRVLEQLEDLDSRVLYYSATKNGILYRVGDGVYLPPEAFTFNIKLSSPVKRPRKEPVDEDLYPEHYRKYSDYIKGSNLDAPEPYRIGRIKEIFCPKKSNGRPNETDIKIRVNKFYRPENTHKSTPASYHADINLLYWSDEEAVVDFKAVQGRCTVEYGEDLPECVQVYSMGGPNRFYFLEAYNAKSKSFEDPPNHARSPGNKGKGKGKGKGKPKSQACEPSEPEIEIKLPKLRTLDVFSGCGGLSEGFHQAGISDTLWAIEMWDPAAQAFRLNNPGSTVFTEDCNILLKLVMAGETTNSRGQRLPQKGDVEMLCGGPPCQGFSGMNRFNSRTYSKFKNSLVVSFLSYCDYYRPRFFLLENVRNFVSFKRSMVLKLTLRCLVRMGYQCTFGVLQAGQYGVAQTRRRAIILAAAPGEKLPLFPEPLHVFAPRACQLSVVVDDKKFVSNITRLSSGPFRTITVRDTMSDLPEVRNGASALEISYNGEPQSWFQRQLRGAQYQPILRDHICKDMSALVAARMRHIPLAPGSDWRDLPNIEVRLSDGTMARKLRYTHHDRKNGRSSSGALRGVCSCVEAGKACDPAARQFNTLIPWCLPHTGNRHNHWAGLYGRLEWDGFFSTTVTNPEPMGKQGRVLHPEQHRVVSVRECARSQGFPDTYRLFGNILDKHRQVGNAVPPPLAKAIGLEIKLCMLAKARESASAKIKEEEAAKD
Text: as §1
Immunoblot analysis. For the detection of Dnmt1, Dnmt3b and actin, whole cell lysates were prepared as previously described (Smith, J. M., Johanesen, P. A., Wendt, M. K., Binion, D. G., and Dwinell, M. B. (2005). CXCL12 activation of CXCR4 regulates mucosal host defense through stimulation of epithelial cell migration and promotion of intestinal barrier integrity. Am. J. Physiol Gastrointest. Liver Physiol 288, 316-26), and 10 or 25 μg of protein size separated using reducing SDS-PAGE. Equal protein loading was confirmed by Coomassie blue staining. […]

[5] = tested on: CXCR4-expressing U937 monocytic cells; assay: Leukocyte chemotaxis assay (Transwell, U937 monocytes over epithelial monolayers); format: cell-based, human
Description: Leukocyte chemotaxis assay. HT29 or HCT116 cells were plated and grown to confluence in 24-well dishes. Cells were then serum starved for 2 days. Calcein-AM (Molecular Probes) loaded U937 monocytes (5×10^5) were plated to the upper well of a Transwell chemotaxis chamber (5 μm pore size, Corning Costar, Corning, N.Y.), with the serum-starved epithelial monolayers in the bottom chamber. U937-epithelial co-cultures were supplemented with the CXCR4 receptor antagonist AMD3100 (5 μg/ml) or remain untreated as a control. U937 cells were incubated without epithelial cells or, as a separate control, epithelial cells alone, were used to establish constitutive chemotaxis or auto-fluorescence respectively. U937 cells were incubated with epithelial cells for 3 hr and the number of migrated calcein-loaded monocytes in the bottom chamber quantified by fluorescence spectroscopy (Victor Wallac, Perkin Elmer).

For Nc1ncn([C@H]2C[C@H](O)[C@@H](CO)O2)c(=O)n1 [5-aza, 5-aza-2′-deoxycytidine], the “CXCL12 protein expression by immunofluorescence” value [1] was “detected”, the CXCL12 gene re-expression ([2]; Caco2 cells (data not shown)) was “similarly fostered gene re-expression” and the “CXCL12 mRNA expression” value ([2]; HCT116 cells) was “dose-dependently restored”. For the same molecule, the “CXCR4 mRNA levels” value ([2]; HT29 and HCT116 cells with 5-aza treatment) was “remained unchanged”, the “CXCL12 mRNA expression” value ([2]; HT29 cells) was “dose-dependently restored” and the “time of maximal CXCL12 re-expression” value ([2]; HT29 or HCT116 cells, 2.5 μM 5-aza for 3-6 days) was 5 days. The CXCL12 gene re-expression ([2]; T84 cells (data not shown)) was “similarly fostered gene re-expression”, the “methylation of the CXCL12 promoter” value ([3]; HCT116 cells, 2.5 μM 5-aza, 3 days) was “inhibited” and the “methylation of the CXCL12 promoter” value ([3]; HT29 cells (data not shown)) was “inhibited”. The “extractable levels of Dnmt1” value [4] was “ablated”.
With c1cc(CN2CCCNCCNCCCNCC2)ccc1CN1CCCNCCNCCCNCC1 [AMD3100] the “chemotaxis of U937 cells toward CXCL12-expressing HT29 and HCT116 cells” value ([5]; AMD3100 5 μg/ml, 3 hr) was “potently blocked migration”.
For “CXCL12: alpha type 7.8 kDa CXC chemokine, here secreted by stably transfected HT29 and HCT116 cells”, the “ability to stimulate chemotaxis of U937 cells” value ([5]; CXCL12 secreted from HT29 and HCT116 stable transfectants) was “functional”.
